Results taken from patent EP4722219A1 (Gan & Lee Pharmaceuticals Co., Ltd., priority 2023, dated 2024).

Columns and labels:
Type in all cases: cell-based
[1] = target: T1, ERα (Homo sapiens, UniProt P03372); assay: ERα degradation in T-47D cells (Western blot); conditions: 4 hours
T1 sequence (P03372 1-595): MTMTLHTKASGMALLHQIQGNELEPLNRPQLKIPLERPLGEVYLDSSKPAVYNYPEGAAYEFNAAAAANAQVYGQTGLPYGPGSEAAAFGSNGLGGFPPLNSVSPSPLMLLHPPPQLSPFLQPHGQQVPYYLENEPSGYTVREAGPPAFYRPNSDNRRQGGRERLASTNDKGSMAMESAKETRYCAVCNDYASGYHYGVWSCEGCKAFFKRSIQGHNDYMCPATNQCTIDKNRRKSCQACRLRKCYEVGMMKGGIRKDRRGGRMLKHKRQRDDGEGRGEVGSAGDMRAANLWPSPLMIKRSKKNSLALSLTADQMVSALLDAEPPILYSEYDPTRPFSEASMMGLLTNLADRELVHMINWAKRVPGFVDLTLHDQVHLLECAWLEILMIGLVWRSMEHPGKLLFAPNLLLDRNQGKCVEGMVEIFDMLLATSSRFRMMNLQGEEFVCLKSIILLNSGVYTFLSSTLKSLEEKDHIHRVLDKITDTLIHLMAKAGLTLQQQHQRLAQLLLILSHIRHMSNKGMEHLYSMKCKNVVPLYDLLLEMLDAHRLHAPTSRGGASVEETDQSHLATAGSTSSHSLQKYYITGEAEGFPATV
Experimental: (§1) Western blotting: The total protein concentration in the collected cell lysate supernatant was determined using the BCA protein concentration assay kit (enhanced) (P0009, Beyotime). Based on the total protein concentration determined by BCA, the protein concentration was adjusted to 1 µg/µL using RIPA lysis buffer and 5× SDS-PAGE protein loading buffer (MB01015, GenScript). The protein was denatured in a 95°C water bath for 5 minutes. After denaturation, the condensed water on the tube wall was collected by centrifugation and used as the loading sample. 20µL of the loading sample (20 µg of total protein) was added to the sample well of a 12% precast gel (M00669, GenScript). Electrophoresis was performed at 100 V for 20 minutes, followed by switching to 150 V for 40 minutes. After electrophoresis, the proteins from the SDS-PAGE gel were transferred to a PVDF membrane at a constant voltage of 100 V for 60 minutes. After transfer, the PVDF membrane corresponding to the ERα protein and internal reference protein was cut and incubated in 1× QµickBlock blocking buffer (P0252, Beyotime) for 30 minutes at room temperature on a shaker. After blocking, the ERα primary antibody (1:1000, 8644S, CST) was added and incubated overnight at 4°C on a shaker. The PVDF membrane was washed three times with 1× TBST buffer for 5 minutes each. Rabbit IgG (H+L) secondary antibody (1:7500, SA5-35571, Invitrogen) was added and incubated for 1 hour at room temperature on a shaker. The membrane was then washed again three times with 1× TBST buffer for 5 minutes each. Finally, the membrane was imaged using a dual-color infrared laser imaging system (Odyssey DLx, LICOR). Protein maps were analyzed for grayscale value using Image Studio Lite software. The grayscale correction value for each sample was calculated using the formula: grayscale correction value = grayscale value of the target protein / grayscale value of the corresponding internal reference. Then the grayscale correction values of the compound group and the control group were compared to calculate the degradation rate of the compound. Table 4 Degradation rate of ERα by PROTAC compounds of the present invention and positive control in MCF-7 cells (%)
Test Example 5 Degradation of ERα by the PROTAC compounds disclosed in the present invention in T-47D cells
T-47D (ATCC) cells were cultured in PRMI-1640 medium (30-2001, ATCC) containing 10% FBS (10099141C, Gibco) at 37°C and 5% CO2 until they entered the logarithmic growth phase. T-47D cells were seeded at a density of 3×10^5 cells/well in a 6-well plate and incubated at 37°C, 5% CO2 for 24 hours. After cell attachment, 1 µL of compound dimethyl sulfoxide solution (final concentration 0.15-1000 nM) was added and incubated for another 4 hours at 37°C, 5% CO2 incubator. After 4 hours, the culture medium was discarded, and each well was washed once with 1 mL of pre-chilled 1× DPBS. The cells were then lysed with 50 µL of RIPA lysis buffer (P0013B, Beyotime) and 1× protease inhibitor cocktail (P1005, Beyotime). After incubation on ice for 20 minutes, the cells were centrifuged at 14,000 g at 4°C for 30 minutes. The supernatant was carefully collected and analyzed for ERα protein levels by immunoblotting. Table 5 Degradation rate of ERα by PROTAC compounds of the present invention and positive control sample in T-47D cells (%)

[2] = target: T1, ERα; assay: ERα degradation in MCF-7 cells (Western blot); parameters: host or cells: MCF-7; conditions: 4 hours
Experimental: Test Example 4 Effect of PROTAC Compounds Disclosed in the Present Invention on ERα Degradation in MCF-7 Cells
MCF-7 (ATCC) cells were cultured in DMEM medium (11995-065, Gibco) containing 10% FBS (10099141C, Gibco) at 37°C and 5% CO2 until they entered the logarithmic growth phase. MCF-7 cells were plated at a density of 3×10^5 cells/well in a 6-well plate and incubated at 37°C, 5% CO2 for 24 hours. After cell attachment, 1µL of compound in dimethyl sulfoxide (final concentration 0.15-1000nM) was added and incubated for another 4 hours at 37°C, 5% CO2 incubator. After 4 hours, the culture medium was discarded, and each well was washed once with 1 mL of pre-chilled 1× DPBS. The cells were then lysed with 50 µL of RIPA lysis buffer (P0013B, Beyotime) and 1× protease inhibitor cocktail (P1005, Beyotime). After incubation on ice for 20 minutes, the cells were centrifuged at 14,000 g at 4°C for 30 minutes. The supernatant was carefully collected and analyzed for ERα protein levels by immunoblotting.
as §1

[3] = tested on: T-47D cells; assay: Inhibition of cell proliferation in T-47D cells (CCK-8); conditions: 6 days treatment, CCK-8 cell viability
Outline: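 Viability by CCK-8 after a 6-day, 37 °C/5% CO2 exposure of T-47D cells (3,000/well, RPMI-1640 + 10% FBS) to graded PROTAC concentrations. Inhibition rates gave the IC50.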

[4] = tested on: MCF-7 cells; assay: Inhibition of cell proliferation in MCF-7 cells (CCK-8); conditions: Homo sapiens, MCF7, 144 h, MCF-7 cell proliferation, 6 days treatment
Outline: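 IC50 from CCK-8 viability-based inhibition after 6-day treatment of MCF-7 cells (800 cells/well, 10% FBS DMEM, 37 °C, 5% CO2) with serially varied compound concentrations.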

| Structure (SMILES) | Degradation rate of ERα in T-47D cells (%) ([1]; 1nM) | Degradation rate of ERα in T-47D cells (%) ([1]; 10nM) | Degradation rate of ERα in MCF-7 cells (%) ([2]; 1nM) | Degradation rate of ERα in MCF-7 cells (%) ([2]; 10nM) | IC50 ([3]; Homo sapiens, T47D, 144 h) | IC50 [4] | IC50 [3] |
| --- | --- | --- | --- | --- | --- | --- | --- |
| C[C@@H]1Cc2cc(O)ccc2C(c2c(F)cc(N3CCC(C(=O)N4CCC(N5CCC6(CC5)COc5c6ccc6c5n(C)c(=O)n6C5CCC(=O)NC5=O)CC4)CC3)cc2F)N1CC(F)F (stereo partly drawn) [ER-P-30, 3-(1'-(1-(1-(4-((3R)-2-(2,2-difluoroethyl)-6-hydroxy-3-methyl-1,2,3,4-tetrahydroisoquinolin-1-yl)-3,5-difluorophenyl)piperidine-4-carbonyl)piperidin-4-yl)-1-methyl-2-oxo-1,2-dihydro-3H,7H-spiro[benzofuro[6,7-d]imidazole-6,4'-piperidin]-3-yl)piperidine-2,6-dione] | 47% | 17% | 42% | 14% | 2.42 nM | 4960 nM | – |
| Cn1c(=O)n(C2CCC(=O)NC2=O)c2ccc3c(c21)OCC31CCN(C2CCN(C(=O)C3CCN(c4ccc([C@@H]5c6ccc(O)cc6CC[C@@H]5c5ccccc5)cc4)CC3)CC2)CC1 (stereo partly drawn) [ER-P-13, 3-(1'-(1-(1-(4-((1R,2S)-6-hydroxy-2-phenyl-1,2,3,4-tetrahydronaphthalen-1-yl)phenyl)piperidine-4-carbonyl)piperidin-4-yl)-1-methyl-2-oxo-1,2-dihydro-3H,7H-spiro[benzofuro[6,7-d]imidazole-6,4'-piperidin]-3-yl)piperidine-2,6-dione] | 79% | 74% | 72% | 85% | 0.47 nM | 18.9 nM | – |
| Cn1c(=O)n(C2CCC(=O)NC2=O)c2ccc3c(c21)OCC31CCN(C[C@H]2CC[C@@H](OC3CCN(c4ccc([C@@H]5c6ccc(O)cc6CC[C@@H]5c5ccccc5)cc4)CC3)CC2)CC1 (stereo partly drawn) [ER-P-54, 3-(1'-(((1S,4S)-4-((1-(4-((1R,2S)-6-hydroxy-2-phenyl-1,2,3,4-tetrahydronaphthalen-1-yl)phenyl)piperidin-4-yl)oxy)cyclohexyl)methyl)-1-methyl-2-oxo-1,2-dihydro-3H,7H-spiro[benzofuro[6,7-d]imidazole-6,4'-piperidin]-3-yl)piperidine-2,6-dione] | 67% | 81% | 50% | 76% | 0.15 nM | 1020 nM | – |
| Cn1c(=O)n(C2CCC(=O)NC2=O)c2ccc3c(c21)C1(CCN(C2CCC4(CC2)CN(c2ccc([C@@H]5c6ccc(O)cc6CC[C@@H]5c5ccccc5)cc2)C4)CC1)CO3 (stereo partly drawn) [ER-P-19, 3-(1'-(2-(4-((1R,2S)-6-hydroxy-2-phenyl-1,2,3,4-tetrahydronaphthalen-1-yl)phenyl)-2-azaspiro[3.5]nonan-7-yl)-1-methyl-2-oxo-1,2-dihydro-3H,7H-spiro[benzofuro[4,5-d]imidazole-8,4'-piperidin]-3-yl)piperidine-2,6-dione] | 6% | 15% | -8% | 7% | 10.3 nM | 4460 nM | – |
| O=C1CCC(Nc2ccc3c(c2)OCC32CCN(C[C@H]3CC[C@@H](OC4CCN(c5ccc([C@@H]6c7ccc(O)cc7CC[C@@H]6c6ccccc6)cc5)CC4)CC3)CC2)C(=O)N1 (stereo partly drawn) [ER-P-31, 3-((1'-(((1S,4s)-4-((1-(4-((1R,2S)-6-hydroxy-2-phenyl-1,2,3,4-tetrahydronaphthalen-1-yl)phenyl)piperidin-4-yl)oxy)cyclohexyl)methyl)-2H-spiro[benzofuran-3,4'-piperidin]-6-yl)amino)piperidine-2,6-dione] | 26% | 79% | 29% | 71% | 2.71 nM | 54.8 nM | – |
| C[C@@H]1Cc2cc(O)ccc2C(c2c(F)cc(N3CCC4(CCC(N5CC6(CCC7(CC6)COc6c7ccc7c6CN(C6CCC(=O)NC6=O)C7=O)C5)CC4)CC3)cc2F)N1CC(F)F (stereo partly drawn) [ER-P-21, 3-(1-(3-(4-((3R)-2-(2,2-difluoroethyl)-6-hydroxy-3-methyl-1,2,3,4-tetrahydroisoquinolin-1-yl)-3,5-difluorophenyl)-3-azaspiro[5.5]undecan-9-yl)-6"-oxo-6",8"-dihydro-2"H,7"H-dispiro[azetidine-3,1'-cyclohexane-4',3"-furo[2,3-e]isoindol]-7"-yl)piperidine-2,6-dione] | 42% | 65% | 50% | 69% | 1.3 nM | 15.1 nM | – |
| Cn1c(=O)n(C2CCC(=O)NC2=O)c2ccc3c(c21)OCC31CCN(C2CC3(CCN(c4ccc([C@@H]5c6ccc(O)cc6CC[C@@H]5c5ccccc5)cc4)CC3)C2)CC1 (stereo partly drawn) [ER-P-15, 3-(1'-(7-(4-((1R,2S)-6-hydroxy-2-phenyl-1,2,3,4-tetrahydronaphthalen-1-yl)phenyl)-7-azaspiro[3.5]nonan-2-yl)-1-methyl-2-oxo-1,2-dihydro-3H,7H-spiro[benzofuro[6,7-d]imidazole-6,4'-piperidin]-3-yl)piperidine-2,6-dione] | 44% | 31% | 22% | 26% | – | 2980 nM | 0.65 nM |
| Cn1c(=O)n(C2CCC(=O)NC2=O)c2ccc3c(c21)C1(CCN(C(=O)[C@H]2CC[C@H](CN4CCN(c5ccc([C@@H]6c7ccc(O)cc7CC[C@@H]6c6ccccc6)cc5)CC4)CC2)CC1)CO3 (stereo partly drawn) [ER-P-7] | 44% | 77% | 22% | 62% | 1.74 nM | 603 nM | – |
